Experimental findings from publication PMC12015293 (Communications Biology, 2025) are described below.

The subject of the assay is osteoclastogenesis of bone marrow-derived monocyte/macrophage precursor cells (BMMs). Nature of the assay: RANKL-induced osteoclast differentiation of BMMs. The class given is cell-based, mouse (C57BL/6). The settings on record: 10 μM, late stage.

For the compound `C[S+]([O-])c1ccc(-c2nc(-c3ccncc3)c(-c3ccc(F)cc3)[nH]2)cc1` (stereo not shown) [SB203580], the “effect of p38 inhibitor on osteoclastogenesis” value is listed as “also inhibited osteoclastogenesis”.
